Assay results reported in US9303019B2, “Amino-pyrroline derivatives, and use thereof in the prevention and/or treatment of metabolic syndrome” (UNIVERSITE DE STRASBOURG, priority 2012, dated 2016).
pKi: −log10 of the molar value. Where a name gives a salt, the structure may show the parent alone.

Tests used:
α2-adrenergic receptors = test: Binding assay of the α2-adrenergic receptors on CHO cell membranes with [3H]RX821002; parameters: species or system human; conditions: CHO cells
Procedure: These membranes (30 μg proteins/ml for CHO-hα2A and CHO-hα2B, 100 μg protein/ml for CHO-hα2C) were incubated for 60 min at ambient temperature in binding buffer (33 mM Tris-HCl, 1 mM EDTA, pH 7.5) in a final volume of 500 μL containing 0.8 or 1 or 2 nM [^3H]RX821002 respectively for the adrenergic receptors hα2A, hα2B and hα2C.
Incubation was halted by rapid vacuum filtration through GF/C glass fibre filters followed by three successive washings in ice-cold binding buffer.
Non-specific binding was determined using 10 μM phentolamine.
(§1) The competitive assays were analyzed by non-linear regression using the GraphPad programme.
(§2) Ki values were determined using the method described by Cheng and Prussof (Cheng, Y. C.; Prusoff, W. H. Relationship between the Inhibition Constant (Ki) and the Concentration of Inhibitor which causes 50 percent Inhibition (I50) of an Enzymatic Reaction. Biochem. Pharmacol. 1973, 22, 3099-3108).

I1 receptor [1] = target: I1 receptor (Homo sapiens, UniProt Q9Y2I1); test: Specific binding assay of the I1 receptor on human platelets with [125I]LNP 911
Procedure: Binding assays were performed at 37° C. using [^125I]LNP 911 as radioligand following the general procedure described but adapted to washed whole platelets (Greney, H.; Urosevic, D.; Schann, S.; Dupuy, L.; Bruban, V.; Ehrhardt, J,-D.; Bousquet, P.; Dontenwill, M. [^125I]2-(2-Chloro-4-iodo-phenylamino)-5-methyl-pyrroline (LNP911), a High-Affinity Radioligand Selective for I1 Imidazoline Receptors. Mol. Pharmacol. 2002, 62, 181-191).
Incubation was initiated through the addition of 900 to 950 μl of platelet suspension at a concentration of 500000/μl in a final volume of 1 ml Tyrode albumin and was performed at 37° C. for 5 min (equilibrium conditions). The competitive assays were conducted using a single concentration of radioligand ([…], 200 000 cpm), in the presence of increasing concentrations of suitable non-labelled ligand. Non-specific binding was determined by the binding of [^125I]LNP 911 in the presence of 100 nM of non-labelled LNP 911 and represented about 10% of total radioactivity when […] of [^125I]LNP 911 were used.
The reaction was halted by rapid vacuum filtration through GF/C fibre glass filters followed by five rapid washings of the filters with 3 ml of ice-cold Tyrode ([…], pH 7.35). Radioactivity was measured using a gamma counter (Wallac 1410).
as §1, §2

I1 receptor [2] = target: I1 receptor (Mus musculus, UniProt Q80TM9); test: Competitive binding to [125I]-PIC in membranes of 3T3 adipocytes; parameters: species or system murine; conditions: 3T3 cell membranes
Procedure: The adipocytes were washed twice with ice-cold PBS, harvested and homogenized in 25 mM Tris-HCl buffer, pH 7.5, 1 mM EDTA. The homogenates were centrifuged at 20,000×g for 15 min at 4° C. and the supernatant stored at −80° C. until use. The residues were re-suspended in 25 mM Tris-HCl buffer, pH 7.5, 1 mM EDTA and stored at −80° C. […]
The reaction was halted by rapid vacuum filtration through GF/B fibre glass filters treated with 0.3% PEI using filtering equipment of Brandel® type, followed by three rapid washings of the filters using 3 ml of ice-cold 50 mM Tris-HCl buffer, pH 7.4. The radioactivity retained on the dried filters was determined using a Minaxi gamma counter (Packard, Meriden, CT, USA). Non-specific binding was determined by [^125I]PIC binding in the presence of 10 μM PIC and represented about 43% of total radioactivity.

3T3-L1 adipocytes = test: Secretion of adiponectin by differentiated 3T3-L1 adipocytes (ELISA); assay type: cell-based, murine
Procedure: 3T3-L1 murine preadipocytes were cultured to confluence at 37° C. in DMEM medium containing 4.5 g/litre of D-glucose, 10% FCS and antibiotics. At confluence, differentiation of the 3T3-L1 adipocytes was initiated through the addition over 48 h of a mixture containing 100 μM methyl-isobutylxanthine, 100 nm dexamethasone and 175 nM insulin. The cells were then passaged every 2-3 days in DMEM, 10% FCS and 175 nM insulin. More than 95% of cells had the phenotype of mature adipocytes 10 days after confluence was reached.
To determine the secretion of adiponectin by mature adipocytes, differentiated 3T3-L1 adipocytes (10 days after confluence) were placed in culture in 12-well plates and washed three times with DMEM, then cultured for 6 h in DMEM alone, in the absence or presence of 3 μM of compound 1. In some wells the antagonist selective for the imidazoline receptors I1, efaroxan, was added (100 μM) 30 min before exposure to compound 1.
The culture medium was then recovered, centrifuged for 3 min at 10 000 g to remove cell contaminants, and the supernatant was stored at −80° C. until use. After two washings in cold PBS, the adipocytes were collected in PBS, homogenized and stored at −80° C. An aliquot of adipocyte homogenate was stored for protein determination. The adiponectin was measured using an ELISA kit following the manufacturer's recommendations. The adiponectin concentration was normalized with the cell protein content.

Chain of I1 receptor (Homo sapiens, UniProt Q9Y2I1) (Q9Y2I1 2-1504 limits assumed): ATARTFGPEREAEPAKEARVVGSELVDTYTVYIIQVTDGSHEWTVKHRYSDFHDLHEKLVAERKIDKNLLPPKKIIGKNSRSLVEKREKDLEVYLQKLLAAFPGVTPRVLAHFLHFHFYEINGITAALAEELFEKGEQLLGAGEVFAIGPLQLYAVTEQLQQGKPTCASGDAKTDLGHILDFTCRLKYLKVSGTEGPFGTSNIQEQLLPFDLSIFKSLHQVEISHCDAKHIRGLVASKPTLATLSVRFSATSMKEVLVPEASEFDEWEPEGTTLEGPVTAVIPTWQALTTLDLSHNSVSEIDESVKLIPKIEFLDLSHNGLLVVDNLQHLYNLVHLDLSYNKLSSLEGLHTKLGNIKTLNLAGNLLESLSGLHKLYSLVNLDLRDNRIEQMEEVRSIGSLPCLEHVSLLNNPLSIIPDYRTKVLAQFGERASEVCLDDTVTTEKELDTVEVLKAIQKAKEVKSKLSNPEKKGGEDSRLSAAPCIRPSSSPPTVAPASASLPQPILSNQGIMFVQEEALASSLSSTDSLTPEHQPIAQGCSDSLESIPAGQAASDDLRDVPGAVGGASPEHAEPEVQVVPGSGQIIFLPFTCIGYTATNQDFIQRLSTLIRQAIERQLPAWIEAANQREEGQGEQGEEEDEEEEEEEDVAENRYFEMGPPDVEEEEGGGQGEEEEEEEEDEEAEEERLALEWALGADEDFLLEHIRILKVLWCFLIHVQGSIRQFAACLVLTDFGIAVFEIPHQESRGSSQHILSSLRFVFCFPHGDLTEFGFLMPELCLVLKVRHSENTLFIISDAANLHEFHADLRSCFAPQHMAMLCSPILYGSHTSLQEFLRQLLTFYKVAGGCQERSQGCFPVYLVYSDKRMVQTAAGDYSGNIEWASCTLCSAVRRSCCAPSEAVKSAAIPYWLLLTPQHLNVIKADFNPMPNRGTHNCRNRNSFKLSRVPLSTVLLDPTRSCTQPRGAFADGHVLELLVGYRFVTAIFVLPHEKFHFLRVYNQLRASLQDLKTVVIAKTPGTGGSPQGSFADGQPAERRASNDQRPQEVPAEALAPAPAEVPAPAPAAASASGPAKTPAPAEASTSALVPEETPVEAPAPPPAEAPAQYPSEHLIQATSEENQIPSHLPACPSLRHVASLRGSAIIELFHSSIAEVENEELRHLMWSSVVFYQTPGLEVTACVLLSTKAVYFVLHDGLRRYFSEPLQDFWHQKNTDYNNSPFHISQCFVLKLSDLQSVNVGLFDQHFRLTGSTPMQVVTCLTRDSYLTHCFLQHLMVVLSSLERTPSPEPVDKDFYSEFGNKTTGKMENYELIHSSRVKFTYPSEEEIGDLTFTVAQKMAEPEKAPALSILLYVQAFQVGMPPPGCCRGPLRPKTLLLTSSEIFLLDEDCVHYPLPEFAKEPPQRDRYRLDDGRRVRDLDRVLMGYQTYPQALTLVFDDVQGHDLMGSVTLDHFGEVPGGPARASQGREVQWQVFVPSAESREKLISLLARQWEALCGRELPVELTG
Chain of I1 receptor (Mus musculus, UniProt Q80TM9) (Q80TM9 whole entry, looked up): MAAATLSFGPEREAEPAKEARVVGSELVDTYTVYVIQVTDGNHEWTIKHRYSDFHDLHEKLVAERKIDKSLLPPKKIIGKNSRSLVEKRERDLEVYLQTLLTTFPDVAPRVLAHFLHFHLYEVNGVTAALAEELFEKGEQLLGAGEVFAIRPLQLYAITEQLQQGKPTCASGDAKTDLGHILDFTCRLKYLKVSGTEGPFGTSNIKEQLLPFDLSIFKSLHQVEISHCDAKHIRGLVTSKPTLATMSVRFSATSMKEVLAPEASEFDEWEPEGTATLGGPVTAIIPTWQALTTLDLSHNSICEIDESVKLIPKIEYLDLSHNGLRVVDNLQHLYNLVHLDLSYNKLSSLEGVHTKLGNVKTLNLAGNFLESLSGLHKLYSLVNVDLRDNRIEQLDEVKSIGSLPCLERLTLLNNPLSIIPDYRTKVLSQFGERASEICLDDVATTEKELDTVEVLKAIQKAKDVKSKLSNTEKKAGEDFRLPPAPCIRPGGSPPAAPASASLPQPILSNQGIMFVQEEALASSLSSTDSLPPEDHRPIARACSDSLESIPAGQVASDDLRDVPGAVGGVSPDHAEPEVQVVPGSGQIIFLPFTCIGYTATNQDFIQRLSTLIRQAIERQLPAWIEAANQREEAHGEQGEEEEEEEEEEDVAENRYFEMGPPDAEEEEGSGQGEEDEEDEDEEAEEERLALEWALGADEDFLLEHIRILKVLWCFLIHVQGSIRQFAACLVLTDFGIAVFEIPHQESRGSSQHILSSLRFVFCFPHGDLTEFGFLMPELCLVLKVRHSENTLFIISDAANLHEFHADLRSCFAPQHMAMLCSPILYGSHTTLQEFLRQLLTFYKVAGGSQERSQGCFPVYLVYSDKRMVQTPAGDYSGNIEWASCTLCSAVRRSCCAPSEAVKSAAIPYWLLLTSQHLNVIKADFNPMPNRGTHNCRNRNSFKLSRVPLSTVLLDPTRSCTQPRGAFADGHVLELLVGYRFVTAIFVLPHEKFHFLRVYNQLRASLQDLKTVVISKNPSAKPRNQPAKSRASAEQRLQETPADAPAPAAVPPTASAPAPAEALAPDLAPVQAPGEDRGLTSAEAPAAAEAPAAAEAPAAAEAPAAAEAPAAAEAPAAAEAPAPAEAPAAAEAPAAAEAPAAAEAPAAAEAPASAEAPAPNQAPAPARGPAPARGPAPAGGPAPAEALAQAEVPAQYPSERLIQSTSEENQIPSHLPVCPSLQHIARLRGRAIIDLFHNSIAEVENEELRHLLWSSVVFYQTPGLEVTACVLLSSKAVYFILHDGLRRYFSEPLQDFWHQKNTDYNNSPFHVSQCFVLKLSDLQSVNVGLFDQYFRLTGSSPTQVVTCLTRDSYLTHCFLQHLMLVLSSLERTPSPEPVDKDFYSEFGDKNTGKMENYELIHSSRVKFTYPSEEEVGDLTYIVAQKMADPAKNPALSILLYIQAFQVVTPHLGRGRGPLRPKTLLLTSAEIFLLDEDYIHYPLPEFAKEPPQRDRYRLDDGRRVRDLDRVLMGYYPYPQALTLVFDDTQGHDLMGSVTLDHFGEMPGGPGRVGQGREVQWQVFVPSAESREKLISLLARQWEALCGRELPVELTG

Compound | pKi (α2-adrenergic receptors) | pKi (I1 receptor [1]) | other results
CC1CCC(Nc2cccc3c2CCC3)=N1 (stereo not drawn) [Compound 5, Indan-4-yl-(5-methyl-4,5-dihydro-3H-pyrrol-2-yl)-amine hydrochloride] | < 5.00 | 7.72 | 
CC1CN=C(Nc2ccc(Cl)c3c2CCC3)C1 (stereo not drawn) [Compound 8, (7-Chloro-indan-4-yl)-(4-methyl-4,5-dihydro-3H-pyrrol-2-yl)-amine hydrochloride] | < 5.00 | 9.66 | 
Cc1ccc(NC2=NCC(C)C2)c2c1CCC2 (stereo not drawn) [Compound 9, (7-Methyl-indan-4-yl)-(4-methyl-4,5-dihydro-3H-pyrrol-2-yl)-amine hydrochloride] | < 5.00 |  | 
CC1CCC(Nc2ccccc2Cl)=N1.Cl (stereo not drawn) [Compound 13, (2-Chlorophenyl)-(5-methyl-4,5-dihydro-3H-pyrrol-2-yl)-amine hydrochloride] | < 5.00 |  | melting point: 173 to 174 °C
CC1CCC(Nc2ccc(Cl)c3c2CCC3)=N1 (stereo not drawn) [Compound 20, (7-Chloro-indan-4-yl)-(5-methyl-4,5-dihydro-3H-pyrrol-2-yl)-amine hydrochloride] | < 5.00 | 8.55 | 
Clc1cccc(Cl)c1N=C1NCCN1 [clonidine] |  |  | share of total sites with high affinity (I1 receptor [2]): 57%
CCC1(C2=NCCN2)Cc2ccccc2O1 (stereo not drawn) [efaroxan] |  |  | secretion of adiponectin, efaroxan alone (3T3-L1 adipocytes; 100 μmol/l, control 212.6±19.1): 175.2±15.5 ng/ml/mg of proteins; secretion of adiponectin, pre-incubation with efaroxan before compound 1 (3T3-L1 adipocytes; efaroxan 100 μmol/l 30 min before compound 1 3 μmol/l, vs. 378±38 with compound 1 alone): 236±19.2 ng/ml/mg of proteins
